The source made the active and inactive calls.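 How the source made its calls: active means AC50 no more than tenfold above the top dose tested, or full inhibition at every dose with a flat fit (cut at about 19 µM in these data); inconclusive means flat curve fit with inhibition between 30% and 70%, or poor fit; inactive means AC50 more than tenfold above the top dose tested.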
System: HMLE_sh_eGFP viability, CellTiter-Glo luminescence, 72 h
Assay: viability loss of HMLE_sh_eGFP cells – cell-based, luminescence, counter-screen for HMLE_sh_ECad selective toxicity project, dose response (AID 463074);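 further: counterscreen control line to flag general toxicity for the HMLE_sh_ECad screen; potency for loss of viability as luminescence drops below DMSO wells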

Cc1cc(C(C)(C)C)ccc1OCCCCN1CCCC1
AC50: 4.22 µM

CC(C)(C)[C@@H]1CCC(=O)N(CC[C@H](Sc2ccc(Br)cc2)c2ccccc2)CC1
AC50: 3.38 µM

C=CCC[C@@H](Cc1ccc(F)cc1)C(=O)OC[C@@H](Cc1c[nH]c2ccccc12)NC(=O)[C@@H](CC=C)CC(=O)N(CCO)Cc1ccccc1
AC50: 7.13 µM

C=C(C)COc1ccc(-c2nc(N)ncc2-c2ccc(Br)cc2)c(O)c1
AC50: 7.37 µM

O=C(/C=C/c1ccco1)NCC1OCCc2ccccc21 (centres undefined)
AC50: > 19.5 µM (inactive)

CCn1c(C)c(C)c2cc(C(=O)N3CCN(c4cccc(C)c4C)CC3)ccc21
AC50: 5.44 µM

O=c1c2c3c(sc2ncn1/N=C/c1ccc([N+](=O)[O-])o1)CCCC3
AC50: 6.48 µM

Cc1ccc(NS(=O)(=O)c2ccc(Cl)c(NC(=S)NC(=O)C3CCCCC3)c2)cc1Cl
AC50: 3.58 µM

COC(=O)Nc1ccc(S(=O)(=O)N2c3ccccc3CCC2C)cc1 (centres undefined)
AC50: 1.42 µM

Cc1ccc(C)c(Cc2c(C)nc3c(C(=O)NCc4ccc5c(c4)OCO5)cnn3c2C)c1
AC50: 19 µM

COCCNC(=O)NC1(C(F)(F)F)Oc2ccc(Cl)cc2O1 (centres undefined)
AC50: 17.6 µM

COc1ccc(/C=C/C(=O)c2c(O)n(CCC3=CCCCC3)c(=O)[nH]c2=O)cc1
AC50: 3.33 µM

COc1ccc(C)cc1Nc1n[n+](-c2ccccc2)c(-c2c(OC)ccc3ccccc23)s1
AC50: 6.93 µM

C=CCC[C@H](Cc1ccc(F)cc1)C(=O)OC[C@@H](Cc1c[nH]c2ccccc12)NC(=O)[C@H](CC=C)CC(=O)N(CCO)Cc1ccccc1
AC50: 4.1 µM

COC(=O)c1ccccc1NC(=O)c1nc(S(=O)(=O)Cc2ccccc2)ncc1Cl
AC50: 3.25 µM

CC(C)(CN1CCN(Cc2ccccc2)CC1)NS(=O)(=O)c1ccccc1
AC50: 8.78 µM

CC(=O)O[C@H]1[C@H]2O[C@]23[C@@H]2CC[C@]4(O)C[C@@H](O)CC[C@]4(C)C2CC[C@]3(C)[C@H]1c1ccc(=O)oc1 (some centres undefined)
AC50: < 0.16 µM

O=C(CCc1ccc(Oc2cc([N+](=O)[O-])cc([N+](=O)[O-])c2)cc1)N1CCCCCC1
AC50: 8.85 µM

O=c1cc(N2CCCCC2)c(-c2ccccc2)nn1Cc1ccc(Cl)cc1Cl
AC50: 3.96 µM

CCC/C=C(\CCC)C(NS(=O)(=O)c1ccc(C(F)(F)F)cc1)c1ccccc1 (centres undefined)
AC50: 3.93 µM

CN1C(=O)/C(=C/c2cc(N=Nc3ccccc3)ccc2O)SC1=S
AC50: 1.29 µM

Cc1ccc(-c2cc(-c3ccccc3C)[nH]n2)c(O)c1
AC50: 8.64 µM

CCc1cc2ccc(C)cc2nc1SCC(=O)c1ccc(NC(C)=O)cc1
AC50: 9.7 µM

O=C1[C@H]2CCCC[C@H]2C(=O)N1CCCCN1CCN(c2nsc3ccccc23)CC1
AC50: 4.51 µM

O=C(Nc1ccc2c(c1)OCCO2)c1cccc2nc3ccccc3nc12
AC50: 3.18 µM

CN1CCC(OC(=O)c2cccc(Cl)c2)CC1
AC50: 3.33 µM

Cc1nn2c(COc3ccc(NC(=O)c4ccccc4Cl)cc3)nnc2c2ccccc12
AC50: 3.08 µM

CN(C)CCOc1ccc(-c2c(-c3ccccc3)sc3ccccc23)cc1
AC50: 2.53 µM

COc1cc(OC)cc(-c2sc3ccc(OC)cc3c2-c2ccc(O)cc2)c1
AC50: 3.41 µM

CC1(C)CC[C@@]2(C(=O)O)C(C1)C1=CCC3[C@@]4(C)CC[C@H](O)C(C)(C)C4CC[C@@]3(C)[C@]1(C)C[C@H]2O (some centres undefined)
AC50: 7.84 µM

COc1ccc(C(=O)NNc2ccccc2)cc1OC
AC50: 1.83 µM

O=c1cc(-c2ccccc2)[nH]n1-c1ccc([N+](=O)[O-])cc1
AC50: 8.23 µM

NC(=O)CC(NC(=O)Cc1cccc2ccccc12)c1ccc(NCc2ccc(F)c(F)c2)c([N+](=O)[O-])c1 (centres undefined)
AC50: 10.7 µM

O=C(Nc1nc(-c2cc(Cl)sc2Cl)cs1)c1cccs1
AC50: 2.42 µM

COc1ccc(OC)c(C(=O)CSc2nccc(-c3ccc(Br)cc3)n2)c1
AC50: 1.31 µM

COc1ccc(NC(=O)c2c(N)no[n+]2[O-])cc1
AC50: 1.34 µM

O=C(Nc1ccc(Nc2ccccc2)cc1)c1cc([N+](=O)[O-])ccc1Cl
AC50: 10.6 µM

COc1ccc2c(C)nc(Nc3nc(C)c(C)c(=O)[nH]3)nc2c1
AC50: 7.16 µM

O=C(NCc1ccco1)c1nc2c(nnn2Cc2ccccc2Cl)c(=O)[nH]1
AC50: 1.92 µM

CC(C)=CCc1c(O)cc2c(c1O)C(=O)CC(c1ccc(O)cc1)O2 (centres undefined)
AC50: 3.74 µM

CC(=O)c1ccc(NC(=O)COC(=O)c2c3c(nc4ccccc24)/C(=C\c2cccs2)CCC3)cc1
AC50: 4.54 µM

C[C@H](CO)N1C[C@H](C)[C@H](CN(C)Cc2ccc(-c3ccccc3)cc2)Oc2ccc(NS(=O)(=O)c3ccccc3)cc2CC1=O
AC50: 4.74 µM

COc1ccc(-c2sc3ccc(N4CCOCC4)cc3c2C#CC2(O)CCCCC2)cc1
AC50: 2.94 µM

C=CCn1c(CNc2ccccc2)nnc1SCC(=O)N/N=C/c1ccc(O)cc1O
AC50: 3.23 µM

CCN(CC)C1CCN(C(=O)c2cc(COc3ccc(F)cc3Cl)on2)C1 (centres undefined)
AC50: 15.4 µM

N#CC1=C(SCC(=O)c2ccc(Br)cc2)NC2=C(C(=O)CCC2)C1c1ccco1 (centres undefined)
AC50: 2.21 µM

CCCCCCCCOC(=O)C1=C(C)Nc2nnnn2C1c1cccs1 (centres undefined)
AC50: 6.86 µM

Oc1ccc(C2=NN(c3ccccc3)C(c3ccc(F)cc3)C2)cc1 (centres undefined)
AC50: 3.45 µM

Cn1cc([N+](=O)[O-])c(C(=O)Nc2ccc(-c3nc4ccccc4o3)cc2)n1
AC50: 2.33 µM

O=C1c2ccccc2NC(c2ccc(-c3cccc(Cl)c3)o2)N1O (centres undefined)
AC50: 4.85 µM

CCOC(=O)C(=Cc1ccc(-n2ccnc2)cc1)C(=O)OCC
AC50: 7.68 µM

COc1ccc(/C=N/NC(=O)c2cc(C34CC5CC(CC(C5)C3)C4)[nH]n2)cc1O
AC50: 1.8 µM

CN1CCc2c(sc(NC(=O)c3ccc(S(=O)(=O)N4CCc5ccccc54)cc3)c2C(N)=O)C1
AC50: 5.01 µM

Cc1cc(O)c(C(C)C)cc1C1(c2cc(C(C)C)c(O)cc2C)OC(=O)c2ccccc21
AC50: 3.23 µM

Nc1ccc2c(c1)Oc1ccccc1C=C2
AC50: > 19.5 µM (inactive)

COc1ccc(Cn2nnnc2C(C(C)C)N(Cc2ccco2)Cc2cccs2)cc1 (centres undefined)
AC50: > 19.5 µM (inactive)

CCCCN(C)c1nc(-c2ccco2)c2c(c1C#N)CC(C)(C)OC2
AC50: 11.7 µM

CCC(C)c1ccccc1NC(=O)COC(=O)c1ccc2[nH]c3c(c2c1)CCCC3 (centres undefined)
AC50: 3.4 µM

COc1cccc(-c2sc3ccc(OC)cc3c2-c2ccc(O)cc2)c1
AC50: 3.7 µM

O=C(NCC1CCCCC1)c1cc2ccccc2cc1O
AC50: 7.79 µM

COc1cc(OC)cc(-c2sc3ccc(OC)cc3c2C#CCCO)c1
AC50: 7.93 µM

O=C(Nc1ccc(Cl)cc1)Nc1ccccc1Sc1ncc([N+](=O)[O-])s1
AC50: 6.81 µM

CC(C)(C)OC(=O)NCCc1nnc(S(=O)(=O)Cc2ccc(Cl)cc2Cl)o1
AC50: 5.73 µM

CNc1oc(-c2ccc(Cl)cc2)nc1P(=O)(c1ccccc1)c1ccccc1
AC50: 9.43 µM

Cc1cc([N+](=O)[O-])ccc1-c1ccc(/C=N/NC(=O)c2ccc(Br)o2)o1
AC50: 3.49 µM

CC(C(=O)O)N1C(=O)CSc2ncccc21 (centres undefined)
AC50: > 19.5 µM (inactive)

CC(=NCc1cccc(Cl)c1)c1nc(-c2ccco2)oc1O
AC50: 0.554 µM

CC(C)(C)c1ccc(C(=O)NCCCN2CCN(CCCNC(=O)c3ccc(C(C)(C)C)cc3)CC2)cc1
AC50: 3.25 µM

Cc1ccc(NC2=NCC(Cc3ccc(Br)cc3)S2)cc1 (centres undefined)
AC50: 6.73 µM

O=C(NCCCN1CCOCC1)c1ccc(Sc2ccc(Br)cc2)c([N+](=O)[O-])c1
AC50: < 0.16 µM

CN(CC(=O)Nc1ccc(Cl)c(Cl)c1)CC(=O)Nc1ccc2c(c1)OCO2
AC50: 17.2 µM

COc1nc(N2CCCCCC2)nc(N2CCCCCC2)n1
AC50: 7.43 µM

CSc1nnc(NC(=O)c2nc(S(=O)(=O)Cc3ccccc3F)ncc2Cl)s1
AC50: 2.92 µM

COc1ccc(/C=C/C(=O)c2ccc(NS(=O)(=O)c3ccc(C)cc3)cc2)cc1O
AC50: 3.56 µM

Reference: PubChem BioAssay AID463074 (Broad Institute, 2010)
